Key:
Treg cells = assay: flow cytometry of Treg activity under anti-CD3 T cell activation conditions; type: cell-based, C57BL/6 mice; settings: 3 days; for Treg activity (ratio of Foxp3+CD25+ cells to CD4+ T cells): metformin 200 μM, FK506 100 nM, anti-CD3 1 μg/ml
Procedure: An effect of metformin and FK506 on the activity of Treg cells under T cell activation conditions (anti-CD3 conditions) was examined (FIGS. 8A and 8B). Splenocytes obtained from normal C57BL/6 mice were seeded in a 24-well plate at a density of 1×10^6 cells/ml, treated with metformin (200 μM) or FK506 (100 nM) according to the experimental conditions, and then cultured for 3 days under anti-CD3 activation conditions (1 μg/ml). For the analysis using a flow cytometer, the cells were treated with an anti-CD4-percp antibody and an anti-CD25-APC antibody, reacted at 4° C. for 30 minutes, permeabilized, reacted with an anti-Foxp3-PE antibody, and then analyzed using the flow cytometer. To analyze the Treg activity, cells expressing a CD4+CD25+Foxp3 marker were gated and analyzed. For the results, the ratio of Foxp3+CD25+ cells to the whole cultured CD4+ T cells was plotted on a bar graph. The statistical analysis was carried out using a Graph prism (t-test, ANOVA), and the statistical significance was p<0.05.

[1] = system: allogeneic reactive T cells; assay: mixed lymphocyte reaction (MLR), [3H]-thymidine uptake; type: cell-based, Balb/c; settings: vs untreated Allo control
Procedure: To examine an immunomodulatory effect when T cells were co-treated with metformin and FK506 under in vitro allo-response conditions, an effect of metformin and FK506 on the proliferation of allogeneic reactive T cells was examined using a mixed lymphocyte culture method (i.e., a mixed lymphocyte reaction (MLR)) (FIG. 3). […] In this case, the T cells were treated separately or together with metformin (200 μM) or FK506 (1 nM or 100 nM) according to the experimental conditions, and then cultured for 3 days to stimulate an allogeneic response. On the last day of culture, [^3H]-thymidine was added, and the T cells were additionally cultured for 18 hours. Then, a level of [^3H]-thymidine uptake was measured using a liquid scintillation counter (Beckman, USA), and expressed as a cpm value. The statistical analysis was carried out using a Graph prism (t-test, ANOVA), and the statistical significance was p<0.05.

[2] = system: Splenocytes obtained from normal C57BL/6 mice; assay: MTT assay under T cell activation conditions (anti-CD3); settings: metformin 200 μM, FK506 100 nM, 3 days, anti-CD3 1 μg/ml; vs control (aCD3)
Procedure: Splenocytes obtained from normal C57BL/6 mice were seeded in a 96-well plate at a density of 2×10^5 cells/ml, treated with metformin (200 μM) or FK506 (100 nM) according to the experimental conditions, and then cultured for 3 days under anti-CD3 activation conditions (1 μg/ml). In the MTT assay, a 3-(4,5dimethyl-thiazol-2-yl)-2,5-diphenyltetrazolium bromide compound was added before 4 hours of cell harvesting, and reacted for 4 hours. Thereafter, each well was treated with DMSO to measure the optical density at a wavelength of 540 nm.

IFN-γ = assay: ELISA of IFN-γ secreted by allogeneic reactive T cells in mixed lymphocyte culture; type: cell-based, Balb/c; settings: metformin 200 μM, 3 days
Procedure: (§1) To examine an effect of metformin and FK506 on the secretion of inflammatory cytokines by allogeneic reactive T cells, the allogeneic reactive T cells were treated with metformin (200 μM) or FK506 (1 nM or 100 nM) according to the experimental conditions, and then cultured for 3 days under the same in vitro allo-response conditions as in <Example 2>. Thereafter, levels of IFN-γ and IL-17 secreted by the T cells in the resulting culture broth were measured using ELISA (FIG. 5). The statistical analysis was carried out using a Graph prism (t-test, ANOVA), and the statistical significance was p<0.05. […] Thereafter, levels of IFN-γ and IL-17 secreted by the T cells in the resulting culture broth were measured using ELISA (FIG. 6). The statistical analysis was carried out using a Graph prism (t-test, ANOVA), and the statistical significance was p<0.05.

IL-6 = IL-6 secreted by LPS-stimulated splenocytes; type: cell-based, C57BL/6 mice; settings: LPS 100 ng/ml, metformin 200 μM, FK506 100 nM, 3 days; vs control (LPS)
Procedure: (§2) Concentrations of TNF-α and IL-6 present in the resulting culture broth were measured to compare the drug effects (FIG. 10). Also, a concentration of immunoglobulins (IgG) present in the culture broth was measured in the same cell culture conditions to compare the drug effects (FIG. 11). The statistical analysis was carried out using a Graph prism (t-test, ANOVA), and the statistical significance was p<0.05.

immunoglobulins (IgG) = immunoglobulins (IgG) secreted by LPS-stimulated splenocytes; type: cell-based, C57BL/6 mice; settings: LPS 100 ng/ml, metformin 200 μM, FK506 100 nM, 3 days; vs control (LPS)
Procedure: as §2

IL-17 = assay: ELISA of IL-17 secreted by allogeneic reactive T cells in mixed lymphocyte culture; type: cell-based, Balb/c; settings: metformin 200 μM, 3 days
Procedure: as §1

TNF-α = TNF-α secreted by LPS-stimulated splenocytes; type: cell-based, C57BL/6 mice; settings: LPS 100 ng/ml, metformin 200 μM, FK506 100 nM, 3 days; vs control (LPS)
Procedure: as §2

[3] = blood concentration of FK506 in whole blood (LC/MS/MS); type: in vivo; settings: Sprague-Dawley, rat, subcutaneous; rats, whole blood after 4 weeks; FK506 1.5 mg/kg s.c., with or without metformin 250 mg/kg oral
Procedure: Thereafter, a blood concentration of FK506 in the collected whole blood was measured using a mass spectrometer (API 3000 LC/MS/MS, Applied Biocystem, Foster City, Calif.).

[4] = metformin 200 μM, FK506 1 nM or 100 nM, 3 days

Row | concentration at 4 weeks [3] | Structure (SMILES) | Treg activity (ratio of Foxp3+CD25+ cells to CD4+ T cells) (Treg cells) | Treg level/activity (ratio of Foxp3+CD25+ cells to CD4+ T cells) (Treg cells; metformin 1 mM, CsA 100 nM, anti-CD3) | proliferation of T cells ([3H]-thymidine uptake) ([1]; Met 200 μM or 1,000 μM, CsA 10 nM or 100 nM, co-administered metformin 200 μM) | proliferation of T cells ([3H]-thymidine uptake) [1, 4] | cytotoxicity, optical density at 540 nm (MTT) [2] | concentration of IFN-γ in the culture broth (IFN-γ; CsA 10 nM or 100 nM) | concentration of IFN-γ in the culture broth (IFN-γ; FK506 1 nM or 100 nM) | concentration of IL-6 in the culture broth (IL-6) | concentration of immunoglobulins (IgG) in the culture broth (immunoglobulins (IgG)) | concentration of IL-17 in the culture broth (IL-17; CsA 10 nM or 100 nM) | concentration of IL-17 in the culture broth (IL-17; FK506 1 nM or 100 nM) | concentration of TNF-α in the culture broth (TNF-α)
1 | – | CN(C)C(=N)NC(=N)N [metformin, Metformin] | increased | increased | suppressed | suppressed | no big difference in optical densities | reduced | reduced | not highly reduced | not significantly changed | reduced | reduced | not highly reduced
2 | 0.0102 ± 0.0013 µg/mL | C=CC[C@@H]1/C=C(\C)C[C@H](C)C[C@H](OC)[C@H]2O[C@@](O)(C(=O)C(=O)N3CCCC[C@H]3C(=O)O[C@H](/C(C)=C/[C@@H]3CC[C@@H](O)[C@H](OC)C3)[C@H](C)[C@@H](O)CC1=O)[C@H](C)C[C@@H]2OC [FK506, Tacrolimus] | increased | – | – | remarkably reduced in a concentration-dependent manner | – | – | reduced | not highly reduced | not significantly changed | – | reduced | not highly reduced

From patent publication US10016376B2, “Composition for alleviating nephrotoxicity caused by immunosuppressive drug, comprising metformin, and composition for preventing or treating immune disease, comprising the same” (THE CATHOLIC UNIVERSITY OF KOREA INDUSTRY-ACADEMIC …, priority 2014, dated 2018)
